Data as given in paper PMC12168616, “Machine Learning‐Assisted Prediction and Generation of Antimicrobial Peptides” (Small Science, 2025).
Read-outs that look alike come from different tables or passages of the source. Ends that are not written are not given here.

Assays:
E. Faecalis ATCC19433 = type: cell-based, Enterococcus faecalis
From the text: (§1) To evaluate the susceptibility of the different peptide sequences against clinical isolates of various bacterial pathogens, we used the minimum inhibitory concentration (MIC) assay. The MIC measures the efficacy of peptides in inhibiting bacterial growth. The specific MIC values of various peptides against Enterococcus […] ATCC19433, Staphylococcus aureus ATCC25923, Klebsiella pneumoniae ATCC43816, Acinetobacter baumannii AB5075, Pseudomonas aeruginosa PAO1, and Enterobacter species ATCC13048 were determined by measuring optical density at 600 nm (OD600 nm). […] The growth inhibition curves were used to estimate the MIC values.
(§2) Bacteria: The MIC was the lowest concentration of a drug, which inhibited the visible growth of a bacteria and could be determined by reading the absorption at 600 nm (OD600 nm) using a spectrophotometer. The peptides were subjected to antibacterial testing against gram‐positive and gram‐negative pathogens. All the ESKAPE pathogens (E. faecalis ATCC19433, S. aureus ATCC25923, K. pneumoniae ATCC43816, A. baumannii AB5075, P. aeruginosa PAO1, and E. aerogenes ATCC13048) were inoculated from nutrient agar plates to obtain a bacterial suspension by incubating the colony of bacteria in a flask containing 10 mL of Mueller Hinton broth II (MHB) at 37 °C for 24 h with gentle shaking (75 rpm). The bacterial suspensions were then diluted in MHB to 1 × 10^6 colony‐forming units (CFU) of bacteria mL^−1. Next, using serial dilutions in 96‐well plates, different concentrations of each peptide from 1.5–400 μM were prepared. 100 μL of peptide solutions at final concentration ranging between 0.75–200 μM were then added to a 96‐well plate containing 100 μL of diluted bacterial suspension. After 18–24 h incubation at 37 °C, the turbidity of the samples was observed, and the optical density of bacteria was measured using OD600 nm. All assays were performed in duplicates. The MICs were calculated as ≥90% inhibition of bacteria growth compared to the positive control wells.

E. Aerogenes ATCC13048 = type: cell-based, Enterobacter aerogenes
From the text: as §1, §2

A. Baumannii AB5075 = type: cell-based, Acinetobacter baumannii
From the text: as §1, §2

K. Pneumoniae ATCC43816 = type: cell-based, Klebsiella pneumoniae
From the text: as §1, §2

P. Aeruginosa PAO1 = type: cell-based, Pseudomonas aeruginosa
From the text: as §1, §2

S. Aureus ATCC25923 = type: cell-based, Staphylococcus aureus
From the text: as §1, §2

[1] = broth microdilution, Mueller Hinton broth II, peptide 0.75–200 μM, 18–24 h at 37 °C, OD600 nm, MIC = ≥90% inhibition, duplicates

| Substance | MIC E. Faecalis ATCC19433 (E. Faecalis ATCC19433; ATCC19433) | MIC E. Aerogenes ATCC13048 (E. Aerogenes ATCC13048; ATCC13048) | MIC A. Baumannii AB5075 (A. Baumannii AB5075; AB5075) | MIC K. Pneumoniae ATCC43816 (K. Pneumoniae ATCC43816; ATCC43816) | MIC P. Aeruginosa PAO1 (P. Aeruginosa PAO1; PAO1) | MIC S. Aureus ATCC25923 (S. Aureus ATCC25923; ATCC25923) | MIC E. Faecalis ATCC19433 (E. Faecalis ATCC19433; [1]) | MIC S. Aureus ATCC25923 (S. Aureus ATCC25923; [1]) | MIC E. Aerogenes ATCC13048 (E. Aerogenes ATCC13048; [1]) | MIC A. Baumannii AB5075 (A. Baumannii AB5075; [1]) | MIC P. Aeruginosa PAO1 (P. Aeruginosa PAO1; [1]) | MIC K. Pneumoniae ATCC43816 (K. Pneumoniae ATCC43816; [1]) |
| --- | --- | --- | --- | --- | --- | --- | --- | --- | --- | --- | --- | --- |
| IKVILKLVTNKGNGI-NH2 [MLWH 21] | 200 µM | 200 µM | 50 µM | 200 µM | – | – | – | – | – | – | – | – |
| KFITKFVKGLGLGTL-NH2 [MLWH 23] | – | – | 50 µM | 200 µM | 200 µM | – | – | – | – | – | – | – |
| KGFAKMFRLLKKLAR-NH2 [MLWH 32] | 12.5 µM | 25 µM | 3 µM | 12.5 µM | 25 µM | 6 µM | – | – | – | – | – | – |
| KHVFAFLGGKLVKLK-NH2 [MLWH 35] | – | – | 50 µM | 200 µM | – | – | – | – | – | – | – | – |
| KLKGLIFAWFKGIIA-NH2 [MLWH 45] | 25 µM | 25 µM | 25 µM | 100 µM | 200 µM | 100 µM | – | – | – | – | – | – |
| LGVKPVFKFFKFFGK [MLWH51, peptide generated using algorithm, list 2] | – | – | – | – | – | – | 100 µM | 200 µM | 200 µM | 12.5 µM | 50 µM | 100 µM |
| LLGFTAFIKGQIKTA-NH2 [MLWH09] | 50 µM | 100 µM | 200 µM | 100 µM | 200 µM | 50 µM | – | – | – | – | – | – |
| NFKIIKKVGIKLKGA-NH2 [MLWH 33] | – | – | 100 µM | – | – | – | – | – | – | – | – | – |
| RMFFKFKKKFKKWGQ [MLWH74, peptide generated using algorithm, list 2] | – | – | – | – | – | – | 200 µM | 50 µM | 100 µM | 25 µM | 200 µM | 25 µM |
| TKFGQKVIKLIAQFL-NH2 [MLWH 24] | 6 µM | 6 µM | 3 µM | 6 µM | 25 µM | 12.5 µM | – | – | – | – | – | – |
| TLVKAVAHIAKLLKF-NH2 [MLWH 22] | 100 µM | 200 µM | 12.5 µM | 50 µM | 200 µM | 100 µM | – | – | – | – | – | – |
| VHKAFRKGSGAAILW-NH2 [MLWH 27] | – | – | 200 µM | 200 µM | – | – | – | – | – | – | – | – |
| VQKLLKFKLKITAKA-NH2 [MLWH08] | 100 µM | 50 µM | 100 µM | 50 µM | 200 µM | – | – | – | – | – | – | – |
| WFKAIAIGLGKFIAK-NH2 [MLWH 14] | 25 µM | 25 µM | 25 µM | 25 µM | – | 25 µM | – | – | – | – | – | – |
| YFHLKKSFGKKLKRV-NH2 [MLWH 41] | – | – | 100 µM | – | – | – | – | – | – | – | – | – |
